The subject of test [1] is JAK1. Put plainly: Western blot of constitutive phospho-JAK1 in HepG2. It counts as cell-based, human. Conditions: HepG2, 10 μMol/L CIMO.
The subject of test [2] is HepG2 cells. The test is described as follows: Cell cycle distribution by PI flow cytometry (sub-G1). The class given is cell-based, human. Conditions: HepG2, 10 μMol/L CIMO. The protocol:
FIG. 1 depicts the accumulation of HepG2 cells in SubG1 phase caused by Compound 1 (CIMO). HepG2 cells (5×10^5/mL) are treated with 10 μMol/L CIMO for indicated time points, after which the cells are washed, fixed, stained with PI, and analyzed for DNA content by flow cytometry.
In late apoptosis, activation of endonucleases leads to fragmentation of genomic DNA into oligomers thereby contributing to a decrease in DNA content, which in turn leads to the buildup of cells in Sub-G1 phase. In order to evaluate the effect of Compound 1 on cell cycle distribution of HepG2 cells, flow cytometric analysis is performed. HepG2 cells are treated with CIMO at different time intervals up to 48 hours. Thereafter, cells are washed, fixed with 70% ethanol, and incubated for about 30 minutes about at 37° C. with 0.1% RNaseA in PBS. Cells are then washed again, resuspended, and stained in PBS containing 25 μg/ml propidium iodide (PI) for about 30 minutes at room temperature. Cell distribution across the cell cycle after PI staining is analyzed with a Beckman Coulter flow cytometer.

Test [3] concerns caspase-3 and PARP. Put plainly: Western blot of procaspase-3 and PARP cleavage. Conditions: HepG2, 10 μMol/L CIMO, time dependent. It counts as cell-based, human. The protocol:
FIG. 4 depicts activation of caspase-3 and induction of apoptosis by Compound 1 (CIMO) [A]. HepG2 cells (5×10^5/mL) are treated with 10 μMol/L CIMO for the indicated times, whole-cell extracts are prepared, separated on SDS-PAGE, and subjected to Western Blotting against caspase-3 and PARP antibody. The same blot is stripped and reprobed with Beta actin antibody to show equal protein loading. [B] Tyrosine phosphatase inhibitor-sodium pervanadate reverses the inhibitory effect of Compound 1 (CIMO) on phospho-STAT3. HepG2 cells (5×10^5/mL) are treated with the indicated concentrations of sodium pervanadate and 10 μMol/L CIMO for about 4 hours, after which whole-cell extracts are prepared, resolved on SDS-PAGE gel, electrotransferred onto nitrocellulose membrane, and probed for phospho-STAT3 and STAT3. [C] illustrates the inhibitory activity of Compound 1 (CIMO) on phospho-STAT3 mediated by protein tyrosine phosphatase. […]
To detect STAT3-regulated proteins and PARP, cells (2×10^6/ml) are treated with CIMO for the indicated times as shown in respective FIGS. 3E, 3D and 4A. […] Whole-cell extract protein (30 μg) is resolved on SDS-PAGE, electrotransferred onto a nitrocellulose membrane, blotted with antibodies against survivin, Bcl-2, Bcl-xL, cyclin D1, Bak, Bid, ICAM-1, procaspase-3, and PARP and then detected by chemiluminescence (ECL; GE Healthcare, Little Chalfont, Buckinghamshire, UK).

The test system of test [4] is AGS (gastric cancer cell line). Put plainly: MTT anti-proliferative assay, AGS. It counts as cell-based. Conditions: Homo sapiens. How it is done: The anti-proliferative activity of Formula I compounds are studied on HepG2 cells using MTT assay. Briefly, the cells (2.5×10^4/ml) are incubated in triplicate in a 96-well plate in the presence or absence of different concentrations of compounds in a final volume of 0.2 ml up to 72 hours at 37° C. Thereafter, 20 μl MTT solution (5 mg/ml in PBS) is added to each well. After 2 hours of incubation at 37° C., 0.1 ml lysis buffer (20% SDS, 50% dimethyl-formamide) is added; incubation is continued overnight at 37° C.; and the optical density (OD) at 570 nm is measured by Tecan plate reader.
Additionally, Compound 1 is tested on a panel of six cell lines including Hep3B, PLC/PRF5, AGS (gastric cancer cell line), DU145 (prostrate cancer cell line), MDA MB231 (breast cancer cell line) and CAL27 (head and neck cancer cell line) cells.
Background: Formazan colour is commonly taken as a measure of viable cells.

The subject of test [5] is HepG2 cells. Put plainly: Matrigel invasion assay. It counts as cell-based, human. Conditions: 5 μMol/L CIMO, presence and absence of CXCL12. How it is done: FIG. 5 depicts inhibition of cell migration by Compound 1 (CIMO) [A]. 70 μl HepG2 cells (5×10^5/mL) are seeded into each compartments of culture insert and insert is removed after about 12 hours. Width of the wound is measured initially and incubation is carried out with and without CIMO (5 μM, for about 8 hours) and CXCL12 (100 ng/mL, for about 24 hours). [B] Inhibition of cell invasion by Compound 1 (CIMO). HepG2 (2×10^5) cells are seeded in the top chamber of BD BioCoat™ Matrigel™. After pre-incubation with or without 5 μMol/L CIMO for about 8 hours, transwell chambers are placed into the wells of a 24-well plate which contains either only basal medium or basal medium with CXCL12 (100 ng/mL) for about 24 hours. After incubation, the chambers are assessed for cell invasion by staining with crystal violet.
In case of the invasion assay, the said assay is performed wherein BD (Biocoat™ Matrigel™) Invasion chamber with 8 μm pores in the light-tight polyethylene terephthalate membrane is taken and is coated with a reconstituted basement membrane gel (BD Biosciences). 2×10^5 cells are suspended in serum-free DMEM and seeded into the Matrigel Transwell chambers. The cells are incubated with CIMO for about 8 hours. […] The invading cells are then counted in five randomly selected areas under microscopic observation.

Structures are written as SMILES.

By IC50 is commonly meant the point on the concentration scale where inhibition reaches its midpoint. With `COc1ccc(C2CNC(c3cn(Cc4ccc(-c5ccccc5C#N)cc4)c4ccccc34)OC23CCCCC3)cc1` (stereo not drawn) [Compound 1], in test [1], the “phosphorylation of JAK1” value is “significant inhibition”. Besides, the sub-G1 cell population in test [2] (16 hours) came out at 18.8%; in test [2] (24 hours), 38.7%; in test [2] (36 hours), 71%; in test [2] (48 hours) it was 92.1%. Besides, in test [3], the “full length PARP / cleaved 85-kDa fragment” value is on record as “decline of full length PARP with increase in cleaved 85-kDa fragment”. The procaspase-3 activation entry in test [3] is given as “activation of procaspase-3”. The compound also returned a half-maximal inhibitory concentration (IC50) in test [4] of 36.9 µM. Besides, the “inhibition of HepG2 cells motility (invasion)” value in test [5] is “more than 50%”.

Source of the values: patent US9604974B2, “Compounds as modulator of JAK-STAT pathway, methods and applications thereof” (UNIVERSITY OF MYSORE, priority 2015, dated 2017).
